The subject of data set [1] is normal human colonic biopsies. Briefly: Western blot of human colonic biopsies incubated with AuPhos. Type of data set: cell-based. The protocol: FIG. 14A Normal human colonic biopsies were incubated a^t 4° C. with AuPhos×3 hrs and membrane fractions examined for mitochondrial complexes expression by WB. FIG. 14B TNF-stimulated colonic NCM460 cells were treated overnight with AuPhos at concentrations indicated. WB for markers indicated are shown in nuclear and membranous protein fractions. FIG. 14C Markers of PI3K pathway were probed in nuclear and cytosolic fractions of AuPhos-treated NCM460 cells (treated with TNF). FIG. 14D NCM460 cell were treated overnight with TNF and probed for the ROS-induced P-PTEN, which inactivates PTEN and activates PI3K.
Control or DSS colitis mice were gavaged with vehicle (−) or AuPhos (+) (as in FIG. 2) and sacrificed on D14. WB of isolated IEC proteins indicated are shown in nuclear and membranous protein fractions along with densitometry. (#mice=4 for each condition). *p<0.04. FIG. 16E. Normal human colonic biopsies were incubated at 4° C. with AuPhos×3 hrs. Membranous and nuclear fractions examined for indicated proteins by WB.
The effects of AuPhos in Px-accelerated IL-10KO mice by beginning treatment on D21 (7D after cessation of Px) when colitis is severe is shown in FIG. 13A. AuPhos-induced mitochondrial biogenesis and PI3K signaling. […]

Data set [2] in a line: Stability of AuPhos in PBS and DMEM. The format is physicochemical. An excerpt:
(§1) FIGS. 8A-8J present properties of AuPhos. FIG. 8A includes a chemical structure of AuPhos. FIG. 8B includes extrapolated AuPhos-induced OCR (complex I) in liver mitochondria. […] FIG. 8E provides weight change in AuPhos-treated mice over time. FIG. 8F presents stability of AuPhos in PBS and DMEM. FIG. 8G presents stability of AuPhos in PBS and DMEM. FIG. 8H includes an AuPhos-induced Heat map of DEG (left Panel), obtained using log 2(Fold Change) and p-Value <0.00001 thresholds in MDA-MB-231(107) cells (n=2), and the top six hits of KEGG analysis (right panel). FIG. 8I presents biodistribution and pharmacokinetics of AuPhos in different tissues; Colon, Small bowel, Lung, Kidney, Spleen, Liver, Heart and Blood after single dose (oral, 25 mg/kg) administration of AuPhos at 6 h, 12 h and 24 h. FIG. 8J presents biodistribution and pharmacokinetics of AuPhos in different tissues stool after single dose (oral, 25 mg/kg) administration of AuPhos at 6 h, 12 h and 24 h.
(§2) This observation was mitochondrial complex I-driven when different substrates, i.e. pyruvate and succinate, were used to measure the OCR. Transcriptomics was used to study global changes in mRNA in response to a 12 h exposure of AuPhos to MDA-MB-231 cells (FIG. 8H).

Another data set has as its system MDA-MB-231 cells. Kind of data set: Transcriptomics of global mRNA changes after AuPhos exposure. Type of data set: cell-based. To be noted: 12 h exposure.
From the text: as §1, §2

Molecules are shown by their SMILES.

`[Cl][Au]1([c]2ccccc2Cc2ccccn2)[P](c2ccccc2)(c2ccccc2)c2ccccc2[P]1(c1ccccc1)c1ccccc1` [AuPhos]: the mitochondrial complex levels result in data set [1] (fresh human biopsies, dose range of AuPhos, after 3 h, WB) was “rapid increased in complexes”. In data set [1] (human biopsies, 4° C., AuPhos x3 hrs, WB (FIG. 16E)), the “mitochondrial complex levels and downstream signaling” value is “increases mitochondrial complex levels and downstream signaling”. The solution stability entry in data set [2] is “excellent solution stability”. In addition, the “differentially expressed genes (mRNA)” value in the data set on MDA-MB-231 cells was “mitochondrial OXPHOS genes: MT-ND1-5, MT-CYB, MT-CO1-3, and MTATP6 were modulated”.

Source of the values: patent publication US12521415B2, “Accelerating repair of mucosal injury using gold(III) compounds” (University of Kentucky Research Foundation, priority 2020, dated 2026).
